These results are taken from patent publication US7855188B2, “Quarternized amino glucosamine compound for exerting anticancer effect” (Pukyong National University Industry-Academic Cooperation …, priority 2006, dated 2010).

In series [1] the test system is B16F1 cells. The series can be described thus: MTT cytotoxicity assay in B16F1 cells. Format: cell-based, mouse. As to conditions: after 48 h of incubation, concentrations below 0.01%. Here is the method:
(§1) In order to assay the cell cytotoxicity of glucosamine and quaternized amino glucosamine on colon cancer cell (SW480), lung cancer cell (A549), mouse melanoma cell (B16F1), leukemia cancer cell (HL60) and liver cancer cell (Hep3B), MTT assay was performed with different sample concentrations and incubation time intervals.
(§2) Cells were cultured in microtiter 96-well plates with serum free media and treated with different sample concentrations for varying time intervals and anticancer effect was assessed using MTT cell viability assay. The result was represented in FIG. 2. […] Moreover, the effect was concentration dependent.
B16F1 cells were treated with different concentrations of quaternized amino glucosamine and cytotoxicity was determined using MTT assay. […] This effect could be confirmed when the B16F1 cells were transfected with promoter plasmids of p53 and p21 treated with different concentrations of QAGlc. Induction of phosphor p53 observed in western blot analysis further confirmed that quaternized amino glucosamine induce apoptosis via p53 dependant pathway.
Background: Tetrazolium dyes change colour on reduction, which living cells bring about.

Series [2] has as its system B16F1 cells. Kind of series: Detection of apoptosis by DNA fragmentation assay. The class given is cell-based, mouse. Here is the method:
In order to examine anticancer effect and mechanism of QAGlc, B16F1 cells cultured in 10 cm culture dishes were pre-treated with different concentrations of QAGlc and apoptosis was induced with 2 mM H2O2. Then, cell incubation was performed for different time periods. Cell was rinsed and total DNA was extracted with the standard procedure. DNA was electrophoresed on a 2% agarose gel and DNA fraction was visualized using ethedium bromide staining. The result was represented in FIG. 3.
B16F1 cells cultured in 10 cm culture dishes were pretreated with different concentrations of QAGlc and apoptosis was induced with 2 mM H2O2. After incubating for 48 h, genomic DNA was extracted and electrophoresed on a 2% agarose gel. The result was represented in FIG. 4.

For series [3], the system named is B16F1 cells. Kind of series: FACS analysis of apoptotic cells. The class given is cell-based, mouse. A general note: Flow cytometry measures light scatter and fluorescence of single cells or particles in a stream.
Another series deals with p53. Kind of series: RT-PCR of p53 mRNA. Format: cell-based, mouse. As to conditions: B16F1 cells. Here is the method: (§3) B16F1 cells were treated with QAGlc and total RNA was extracted. PCR was carried out using RT-generated cDNA encoding p53, p21 and GSPDH with their specific primers to amplify p53 and G3PDH mRNA. PCR products were analyzed on a 2% agarose gel. The mRNA of G3PDH served as an internal control for sample loading and mRNA integrity. The result was represented in FIG. 5.

The next series relates to p21 gene. The series can be described thus: p21-Luc gene reporter assay. Format: cell-based, mouse. As to conditions: B16F1 cells; all concentrations; compared to the control. The procedure: (§4) B16F1 cells were transfected with p53-luc, p21-Luc reporter vectors and β-galactosidase expression vector by lipofectamine (Invitrogen) transfection method. After 24 h of transfection, cells were subcultured into 24 well plates and cells treated with different concentrations of QAGlc. The luciferase activity value was normalized to transfection efficiency monitored by the cotransfected β-galactosidase expression vector. The level of induction of luciferase was determined as a ratio in comparison to cells with no stimulation. The result was represented in FIG. 6.
According to the method described above, p21 gene was transfected to B16F1 cells according to the method described above and gene expression after the treatment of QAGlc was determined by relative luciferase activity. The result was represented in FIG. 7.
(Reporter assays use an easily measured gene product as a stand-in for the process of interest.)

Another series has as its system p21. The series can be described thus: RT-PCR of p21 mRNA. Format: cell-based, mouse. As to conditions: B16F1 cells; time dependant. Here is the method: as §3
The next series deals with phospho p53 protein. The series can be described thus: Western blot analysis of phospho p53. Format: cell-based, mouse. As to conditions: B16F1 cells; different time intervals. Here is the method: After treatment of QAGlc for different time intervals, cells were lysed in RIPA buffer [10 mmol Tris-HCL (pH 7.4), 1% deoxycholate, 1% NP40, 150 mmol NaCl, 0.1% SDS, 0.2 mmol phenylmethyl sulfonyl fluoride, 1 mg/L aprotinin and 1 mg/L leupeptin] for 30 min on ice. The lysates were centrifuged at 12,000×g for 15 min to remove debris. Protein samples were resolved using a […] Novex gradient gel (Invitrogen, USA), electrotransferred onto a nitrocellulose membrane, and blocked with 10% skim milk. Monoclonal antibodies of phosphorylated p-53 (Cat. No, Chemicon, CA, USA) were used to detect phosphor-p53 protein using chemiluminescent ECL assay kit (Amersham Pharmacia Biosciences, NJ, USA) according to the manufacturer's instructions. Western blot bands were quantified using ImageMaster software (Amersham Pharmacia Biosciences, NJ, USA). The result was represented in FIG. 8.

Series [4] relates to colon cancer cell (SW480), lung cancer cell (A549), mouse melanoma cell (B16F1), leukemia cancer cell (HL60) and liver cancer cell (Hep3B). The series can be described thus: MTT cell viability assay on various cancer cells. Format: cell-based. As to conditions: after 36 h of treatment; effect concentration dependent; serum free media. Here is the method:
as §1, §2

For the next series, the system named is p53 gene. Kind of series: p53-luc gene reporter assay. As to conditions: B16F1 cells. Format: cell-based, mouse. The procedure: as §4
The mark [5] stands for this setting: after 24 h and 36 h of incubation.

Take `C[N+](C)(C)CC(O)CNC1[C@H](O)OC(CO)[C@@H](O)[C@H]1O` (stereo partly drawn) [QAGlc, quaternized amino glucosamine]: the “anticancer effect (cytotoxicity, MTT)” value with B16F1 cells [1] is on record as “clear anticancer effect was observed”. The “incubation time after which DNA damage was first observed” value in the series with B16F1 cells [2] (100 μg/ml, apoptosis induced with 2 mM H2O2) is on record as 36 h. Also, the “DNA damage (DNA fragmentation)” value in the series with B16F1 cells [2] (48 h incubation, 100 μg/ml) is “higher DNA damage”; with B16F1 cells [2] (48 h incubation, different concentrations, 2 mM H2O2), “higher DNA damage dose-dependently”; with B16F1 cells [2] (prolonged incubation (after 36 h), all tested concentrations) it was “clear effect DNA damage by all the tested concentrations dose-dependently”. The “production of apoptotic cells” value with B16F1 cells [3] is recorded as “increase the production of apoptotic cells”. In addition, in the series on p53 (setting [5]), the p53 transcription entry was “up-regulated”. Further, the “p53 transcription compared with etoposide” value with p53 (setting [5]) is reported as “much higher than that of etoposide”. In addition, the “induction of p53 gene (RT-PCR products)” value in the series on p53 (time dependant) was “induction of p53 and p21 genes in time dependant manner”. The “p21 gene expression (relative luciferase activity)” value with p21 gene is “significantly enhanced”. In the series with p21, the “induction of p21 gene (RT-PCR products)” value is “induction of p53 and p21 genes in time dependant manner”. Further, the “phospho p53 protein level” value with phospho p53 protein was “increase phospho p53 protein level in a time dependant manner”. Further, the “anticancer effect (cell cytotoxicity, MTT)” value in series [4] was “clear anticancer effect”. Besides, the “p53 gene expression effect relative to etaposide” value with p53 gene (100 μg/ml) turned out to be 2 fold. Also, the “p53 gene expression (luciferase reporter)” value in the series with p53 gene (different concentrations) is listed as “up-regulated dose dependently”.
